{"source": "patent US20110159113A1", "about": "“HYPERBRANCHED POLYESTER AND A METHOD OF SYNTHESIZING A HYPERBRANCHED POLYESTER” (priority 2011, published 2011)", "tested_on": "tumor cells C26", "assay": "MTT assay, in vitro cytotoxicity, 72 h incubation", "assay_type": "cell-based", "procedure": "In vitro cytotoxicity of CDDP, P(CA8-G)-CDDP and P(CA12-G)-CDDP was evaluated by using a MTT assay. To measure cytotoxicity, tumor cells C26 were separately incubated in a plate with different concentrations of CDDP, P(CA8-G)-CDDP and P(CA12-G)-CDDP. The duration of incubation was 72 h. […] With respect to FIG. 13, it is concluded that, loading of cisplatin into the P(CA8-G)-CDDP and P(CA12-G)-CDDP influences its cytotoxicity. […] According to the MTT assay measurements, IC50 doses of free cisplatin, P(CA8-G)-CDDP and P(CA12-G)-CDDP were calculated. IC50 dose is the concentrations of active ingredients necessary to inhibit the cell growth by 50%.\nP(CA12-G)-CDDP was synthesized in the same manner as explained above. P(CA8-G)-CDDP and P(CA12-G)-CDDP were used for MTT assay measurements."}
{"smiles": "N.N.[Cl][Pt][Cl]", "note": "[CDDP, cis-dichlorodiammineplatinum (II)]", "values": [{"measurement": "IC50", "result": 37.9, "unit": "µg/mL"}]}
